Measurements as given in publication PMC7080406 (eLife, 2020).
Entries after “also recorded” stand apart in the source; their conditions may differ.

Key:
[1] = molecular target: T1, MT2 (Homo sapiens, UniProt P49286); experiment: Tango β-arrestin recruitment assay, MT2; assay type: cell-based; design: expressed in transfected cells; transient transfection; settings: result in words; compared to G-protein
T1 sequence (P49286 1-362): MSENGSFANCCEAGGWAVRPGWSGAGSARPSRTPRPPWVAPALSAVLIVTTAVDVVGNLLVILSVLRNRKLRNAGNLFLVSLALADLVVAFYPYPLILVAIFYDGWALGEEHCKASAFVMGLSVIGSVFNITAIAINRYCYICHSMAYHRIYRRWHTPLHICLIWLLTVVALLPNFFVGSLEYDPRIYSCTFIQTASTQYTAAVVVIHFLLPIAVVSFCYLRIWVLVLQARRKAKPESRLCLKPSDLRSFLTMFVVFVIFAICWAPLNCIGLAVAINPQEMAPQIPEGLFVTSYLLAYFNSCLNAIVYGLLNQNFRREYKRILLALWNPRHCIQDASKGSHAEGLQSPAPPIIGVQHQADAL
Experimental: (§1) Tango arrestin recruitment assays were carried out according to the previously published procedure [Kroeze et al. (2015)]. In brief, HTLA cells were transiently transfected with receptor TANGO DNA constructs overnight in DMEM with 10% FBS. Transfected cells were then plated into poly-L-Lys coated 384-well plates using DMEM supplemented with 1% dialyzed FBS. After 6 hr incubation, drug dilutions, prepared in DMEM with 1% dFBS, were added for incubation overnight (16–20 hr). Medium and drug solutions were removed, Bright-Glo reagent (20 uL/well) was added for luminescence counting 20 min later. Results were analyzed in GraphPad Prism 7.0.

[2] = molecular target: T2, 5-HT7A (Homo sapiens, UniProt P34969); experiment: Gs-mediated cAMP production assay (GloSensor); assay type: cell-based; settings: weak partial agonist; receptor not given
T2 construct: expressed in transfected cells; host or cells: HEK293T, transient transfection (NIMH PDSP)

[3] = molecular target: T3, MT1 (Homo sapiens, UniProt P48039); experiment: [3H]melatonin competition radioligand binding, MT1 membranes; settings: read-out: MT1 pKi ± SEM (converted)
T3 construct: expressed in transfected cells; host or cells: HEK293T (ATCC CRL-11268), transient transfection
Experimental: (§2) The Radioligand binding assays were conducted by the NIMH Psychoactive Drug Screening Program (PDSP). The NIMH PDSP is directed by Bryan L. Roth, MD, PhD, at the University of North Carolina at Chapel Hill, North Carolina, and Program Officer Jamie Driscoll at NIMH, Bethesda, MD. Binding assay procedures and protocols are also available online at http://pdspdb.unc.edu/pdspWeb/?site=assays. […] Assay plates were sealed and incubated for 4 hr at 37°C in a humidified incubator until harvesting. Plates were harvested using vacuum filtration onto 0.3% polyethyleneimine pre-soaked 96-well Filtermat A (PerkinElmer) and washed three times with cold wash buffer (50 mM Tris, pH 7.4). Filters were dried and melted with a scintillation cocktail (Meltilex, PerkinElmer). Radioactivity was counted using a Wallac TriLux Microbeta counter (PerkinElmer). Results were analyzed using GraphPad Prism 7.0.

[4] = molecular target: T4, MT1 wildtype (WT) (Homo sapiens, UniProt P48039); experiment: Tango β-arrestin recruitment assay, MT1 wildtype; assay type: cell-based; settings: normalized individually (basal 0%, maximum 100%); mean ± SEM, minimum of 3 assays; read-out: pEC50, Tango, MT1 WT (converted)
T4 construct: host or cells: HTLA cells (HEKT based)
Experimental: as §1, with “In” for “Tango arrestin recruitment assays were carried out according to the previously published procedure [Kroeze et al. (2015)]. In”

[5] = molecular target: T5, 5-HT1A (Homo sapiens, UniProt P08908); experiment: Off-target radioligand binding, 5-HT1A
T5 construct: expressed in transfected cells; host or cells: HEK293T, transient transfection (NIMH PDSP)
T5 sequence (P08908 1-422): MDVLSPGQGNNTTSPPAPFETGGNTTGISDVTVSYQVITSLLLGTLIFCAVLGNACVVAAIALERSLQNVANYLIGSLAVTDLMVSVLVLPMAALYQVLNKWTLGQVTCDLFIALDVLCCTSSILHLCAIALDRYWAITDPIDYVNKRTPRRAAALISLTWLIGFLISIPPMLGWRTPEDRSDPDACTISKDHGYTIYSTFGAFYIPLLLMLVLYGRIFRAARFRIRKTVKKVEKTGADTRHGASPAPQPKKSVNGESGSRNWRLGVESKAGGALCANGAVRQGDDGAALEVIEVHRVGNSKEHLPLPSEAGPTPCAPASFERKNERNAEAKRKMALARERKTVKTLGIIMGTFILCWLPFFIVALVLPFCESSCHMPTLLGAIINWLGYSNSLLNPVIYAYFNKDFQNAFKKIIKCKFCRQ
Experimental: as §2

[6] = molecular target: T6, MT1 N162Q mutant receptor (Homo sapiens, UniProt P48039, N162Q); experiment: Tango β-arrestin recruitment assay, MT1 N162Q mutant; assay type: cell-based; settings: normalized individually (basal 0%, maximum 100%); mean ± SEM, minimum of 3 assays; read-out: pEC50, Tango, MT1 N162Q (converted)
T6 construct: expressed in transfected cells; host or cells: HTLA cells (HEKT based)
Experimental: as §1, with “In” for “Tango arrestin recruitment assays were carried out according to the previously published procedure [Kroeze et al. (2015)]. In”

T2 sequence (P34969 1-445 isoform P34969-2): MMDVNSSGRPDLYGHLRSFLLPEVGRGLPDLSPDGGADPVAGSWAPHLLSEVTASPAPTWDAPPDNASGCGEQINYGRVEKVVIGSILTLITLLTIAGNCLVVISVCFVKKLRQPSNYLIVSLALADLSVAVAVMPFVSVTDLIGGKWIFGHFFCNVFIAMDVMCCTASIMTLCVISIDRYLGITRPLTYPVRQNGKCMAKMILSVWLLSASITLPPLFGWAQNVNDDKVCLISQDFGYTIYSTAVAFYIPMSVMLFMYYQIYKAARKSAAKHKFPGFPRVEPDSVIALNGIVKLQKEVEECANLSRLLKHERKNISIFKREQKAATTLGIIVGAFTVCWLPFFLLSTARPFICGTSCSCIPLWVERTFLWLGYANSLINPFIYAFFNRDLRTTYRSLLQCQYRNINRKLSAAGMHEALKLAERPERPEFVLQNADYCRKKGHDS
T6 sequence (P48039 whole entry N162Q): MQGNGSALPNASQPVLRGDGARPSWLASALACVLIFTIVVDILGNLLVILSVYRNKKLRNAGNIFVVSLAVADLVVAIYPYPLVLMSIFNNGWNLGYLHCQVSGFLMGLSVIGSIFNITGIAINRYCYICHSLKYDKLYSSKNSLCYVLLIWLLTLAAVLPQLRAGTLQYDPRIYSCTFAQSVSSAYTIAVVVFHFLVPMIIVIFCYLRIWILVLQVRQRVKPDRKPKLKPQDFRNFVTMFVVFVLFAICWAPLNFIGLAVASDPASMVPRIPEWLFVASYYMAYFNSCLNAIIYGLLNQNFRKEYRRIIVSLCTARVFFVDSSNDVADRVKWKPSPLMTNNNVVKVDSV
T3 sequence (P48039 whole entry): as the sequence (P48039 whole entry N162Q) above, with Q162N counted along it
T4 sequence (P48039 whole entry): as the sequence (P48039 whole entry N162Q) above, with Q162N counted along it

With `COc1ccc2[nH]cc(CCNC(N)=O)c2c1` [Compound 28, [2-(5-methoxy-1H-indol-3-yl)ethyl]urea] as the molecule, how does the “β-arrestin signaling / arrestin recruitment at MT2” value [1] read?
Its value is “dramatically reduced arrestin recruitment; also recorded: marked reduction in β-arrestin signaling compared to G-protein”.

What about the EC50 [2] of the same molecule?
Its EC50 is 1820 nM.

And the Ki [3]?
The Ki was 16.6 nM.

And the EC50 [4]?
Its EC50 is 22.9 nM.

And the inhibition at 10 µM ([5]; 10 μM)?
The inhibition at 10 µM was greater than 50%.

And the Ki ([5]; read-out: pKi, 5-HT1A (converted))?
Its Ki is 851 nM.

What about the EC50 [6] of the same molecule?
Its EC50 is 468 nM.
